{
  "source": "paper PMC3832525",
  "about": "“A Cell-Free Fluorometric High-Throughput Screen for Inhibitors of Rtt109-Catalyzed Histone Acetylation” (PLoS ONE, 2013)",
  "key": {"[1]": {"biological_target": "T1, Rtt109-Vps75 complex (Saccharomyces cerevisiae, UniProt Q07794)", "T1 construct": "using two full-length physiologically relevant protein complexes; made in house", "T1 sequence (Q07794 1-436)": "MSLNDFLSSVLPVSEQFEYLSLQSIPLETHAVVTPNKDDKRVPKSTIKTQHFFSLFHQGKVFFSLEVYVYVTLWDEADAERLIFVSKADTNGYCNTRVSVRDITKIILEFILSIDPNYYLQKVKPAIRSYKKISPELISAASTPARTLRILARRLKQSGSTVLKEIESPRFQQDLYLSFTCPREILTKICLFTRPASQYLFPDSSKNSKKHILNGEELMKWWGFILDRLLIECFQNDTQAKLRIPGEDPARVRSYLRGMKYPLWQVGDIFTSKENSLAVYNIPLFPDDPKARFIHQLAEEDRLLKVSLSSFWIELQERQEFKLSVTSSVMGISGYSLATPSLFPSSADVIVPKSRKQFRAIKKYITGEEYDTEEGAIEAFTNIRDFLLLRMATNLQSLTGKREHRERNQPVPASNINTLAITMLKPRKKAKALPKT", "T1 sequence (P53853 1-264 partner)": "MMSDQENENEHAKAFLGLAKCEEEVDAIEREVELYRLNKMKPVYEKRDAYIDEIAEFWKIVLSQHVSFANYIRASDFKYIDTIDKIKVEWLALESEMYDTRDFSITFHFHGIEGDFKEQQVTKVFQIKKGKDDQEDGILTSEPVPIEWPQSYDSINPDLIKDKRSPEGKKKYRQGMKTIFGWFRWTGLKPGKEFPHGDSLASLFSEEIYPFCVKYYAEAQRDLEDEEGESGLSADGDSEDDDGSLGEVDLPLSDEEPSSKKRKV", "experiment": "CPM-based fluorometric Rtt109-Vps75 HTS / dose-response assay", "type": "biochemical, S. cerevisiae", "procedure": "(§1) Compounds selected for dose-response analyses were tested in duplicate at eight compound concentrations, ranging from 40 nM to 125 µM final compound concentrations. Plate controls, dispensing steps and general assay procedures were unchanged from the aforementioned HTS procedures. Slot blots were performed using standard techniques with a Bio-Rad Bio-Dot SF microfiltration apparatus. Membranes were imaged with a LI-COR Odyssey and analyzed using Image Studio (LI-COR Biosciences). For the slot blot experiments, the assay plates included an additional plate control consisting of the Rtt109-Vps75 and Asf1-dH3-H4 complexes and no acetyl-CoA. Dose-response and slot blot experiments were replicated at least three times by independent experiments."}, "[2]": {"biological_target": "T2, Rtt109-catalyzed histone acetylation (H3K56ac, H3K27ac, H3K9ac) (Saccharomyces cerevisiae, UniProt Q07794)", "T2 construct": "using two full-length physiologically relevant protein complexes; made in house", "T2 sequence (Q07794 1-436)": "T1 sequence (Q07794 1-436)", "T2 sequence (P53853 1-264 partner)": "T1 sequence (P53853 1-264 partner)", "experiment": "Orthogonal antibody-based slot blot assay of histone acetylation", "type": "biochemical, S. cerevisiae", "conditions": "reaction aliquots", "procedure": "as §1\nThis method utilizes modification-specific antibodies to detect changes in the actual histone acetylation, rather than the CoA by-product. […] Equal protein content was verified by Ponceau S staining (Figure 5B)."}, "[3]": {"test_system": "Rtt109", "parameters": "method as in PMID 18568037", "conditions": "ref [11]; cited from earlier work"}, "[4]": {"test_system": "β-lactamase", "conditions": "10 µM"}, "[5]": {"test_system": "p300", "conditions": "ref [69], [70]; cited from earlier work"}, "[6]": {"test_system": "PCAF", "conditions": "ref [69], [70]; cited from earlier work"}},
  "data": [
    {"smiles": "OC(Cn1cncn1)(Cn1cncn1)c1ccc(F)cc1F", "note": "[fluconazole]", "values": [
      {"measurement": "activity against Rtt109-catalyzed histone acetylation in the CPM-based assay", "setting": "[1]; dose-response, negative compound control", "value": "but not fluconazole, showed modest activity"},
      {"measurement": "histone acetylation by slot blot", "setting": "[2]", "value": "did not show any measureable decrease"}
    ]},
    {"smiles": "CC(=O)N[C@@H](CCCCNC(=O)CSCCNC(=O)CCNC(=O)[C@H](O)C(C)(C)COP(=O)(O)OP(=O)(O)OC[C@H]1O[C@@H](n2cnc3c(N)ncnc32)[C@H](O)[C@@H]1OP(=O)(O)O)C(N)=O", "note": "[Lys-CoA]", "values": [
      {"measurement": "activity versus Rtt109", "setting": "[3]", "value": "have not shown activity"}
    ]},
    {"smiles": "C=C(C)[C@@H](CC=C(C)C)C[C@@]12C[C@@H](CC=C(C)C)C(C)(C)[C@@](CC=C(C)C)(C(=O)C(C(=O)c3ccc(O)c(O)c3)=C1O)C2=O", "note": "[garcinol]", "values": [
      {"measurement": "H3K9ac by slot blot", "setting": "[2]; modification-specific antibody", "value": "dose-dependent decreases"},
      {"measurement": "H3K27ac by slot blot", "setting": "[2]; modification-specific antibody", "value": "dose-dependent decreases"},
      {"measurement": "H3K56ac by slot blot", "setting": "[2]; modification-specific antibody", "value": "dose-dependent decreases"},
      {"measurement": "inhibition of β-lactamase activity, detergent present", "setting": "[4]; 0.01% Triton X-100", "value": "no such inhibition was observed"},
      {"measurement": "inhibition of β-lactamase activity, detergent-free", "setting": "[4]; absence of detergent", "value": "only modest inhibition"},
      {"measurement": "IC50", "setting": "[5]", "value": 7, "unit": "µM"},
      {"measurement": "IC50", "setting": "[6]", "value": "[…]"}
    ]},
    {"smiles": "O=C(O)C1=CC(=C(c2ccc(O)c(C(=O)O)c2)c2ccc(O)c(C(=O)O)c2)C=CC1=O", "note": "[ATA, aurintricarboxylic acid]", "values": [
      {"measurement": "signal reduction in HTS compound control wells", "setting": "[1]; 10 µM final concentration", "value": 50, "unit": "%"}
    ]}
  ]
}
